From publication PMC5957549 (Nature, 2017)

Assays:
[1] = system: suite of 31 CNS targets; assay: Binding across a suite of 31 CNS targets; conditions: 10 μM
[2] = system: Nicotinic Ach; assay: Radioligand displacement; format: binding; conditions: 10 μM fenethylline, average of two replicates
[3] = target: Nicotinic Ach α1 (Homo sapiens, UniProt P02708+P07510+Q07001); assay: Radioligand displacement; format: binding; conditions: read-out: Inhib. (%)
[4] = system: GABAA – Site 2; assay: Radioligand displacement; format: binding; conditions: 10 μM fenethylline, average of two replicates
[5] = target: Adenosine A1 (Homo sapiens, UniProt P30542); assay: Radioligand displacement; format: binding; conditions: read-out: Inhib. (%)
Adenosine A1, sequence (P30542 whole entry): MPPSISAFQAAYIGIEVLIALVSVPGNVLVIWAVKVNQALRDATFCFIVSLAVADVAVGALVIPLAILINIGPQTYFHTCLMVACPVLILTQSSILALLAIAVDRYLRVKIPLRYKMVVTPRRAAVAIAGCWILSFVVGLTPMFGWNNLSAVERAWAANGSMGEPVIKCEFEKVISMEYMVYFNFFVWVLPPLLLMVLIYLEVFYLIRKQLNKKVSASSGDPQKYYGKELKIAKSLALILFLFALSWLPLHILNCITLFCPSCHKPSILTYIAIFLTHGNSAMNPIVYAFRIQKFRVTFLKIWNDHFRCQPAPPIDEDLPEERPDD

[6] = format: in vivo, Swiss Webster mice; conditions: fenethylline 50 mg/kg vs amphetamine 5 mg/kg
[7] = system: Rolipram; assay: Radioligand displacement; format: binding; conditions: 10 μM fenethylline, average of two replicates
[8] = system: L-Type Ca Channel; assay: Radioligand displacement; format: binding; conditions: 10 μM fenethylline, average of two replicates
[9] = target: Adrenergic β1 (Homo sapiens, UniProt P08588); assay: Radioligand displacement; format: binding; conditions: read-out: Inhib. (%)
Adrenergic β1, sequence (P08588 whole entry): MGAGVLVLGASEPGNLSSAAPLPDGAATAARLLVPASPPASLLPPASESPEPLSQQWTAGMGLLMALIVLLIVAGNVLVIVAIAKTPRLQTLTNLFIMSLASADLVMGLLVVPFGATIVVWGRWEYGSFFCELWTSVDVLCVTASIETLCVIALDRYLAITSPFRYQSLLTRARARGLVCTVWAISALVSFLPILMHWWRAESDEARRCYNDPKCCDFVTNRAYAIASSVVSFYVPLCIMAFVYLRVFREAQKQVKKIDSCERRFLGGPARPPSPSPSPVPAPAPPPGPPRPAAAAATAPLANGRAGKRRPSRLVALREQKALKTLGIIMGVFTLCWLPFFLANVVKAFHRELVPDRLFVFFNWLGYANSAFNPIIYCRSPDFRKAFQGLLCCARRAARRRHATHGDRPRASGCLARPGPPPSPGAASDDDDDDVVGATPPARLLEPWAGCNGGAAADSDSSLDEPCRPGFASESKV

[10] = system: Swiss Webster mice; assay: Conditioned place preference; format: in vivo; conditions: training with fenethylline 20 mg/kg
[11] = target: Adrenergic α2A (Homo sapiens, UniProt P08913); assay: Radioligand displacement; format: binding; conditions: read-out: Inhib. (%)
Adrenergic α2A, sequence (P08913 whole entry): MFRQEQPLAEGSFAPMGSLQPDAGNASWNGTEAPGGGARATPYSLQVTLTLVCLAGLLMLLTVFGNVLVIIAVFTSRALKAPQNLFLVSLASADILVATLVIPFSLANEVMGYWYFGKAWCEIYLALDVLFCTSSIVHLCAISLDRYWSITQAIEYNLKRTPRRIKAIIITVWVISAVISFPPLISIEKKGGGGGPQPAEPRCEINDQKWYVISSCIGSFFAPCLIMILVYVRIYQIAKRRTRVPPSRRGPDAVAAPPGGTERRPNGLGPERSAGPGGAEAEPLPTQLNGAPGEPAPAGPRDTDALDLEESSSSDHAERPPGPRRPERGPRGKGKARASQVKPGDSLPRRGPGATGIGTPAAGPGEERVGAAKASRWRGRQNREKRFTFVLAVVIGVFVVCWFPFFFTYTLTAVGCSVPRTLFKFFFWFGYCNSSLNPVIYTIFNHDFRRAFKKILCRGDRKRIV

[12] = system: Glutamate – NMDA; assay: Radioligand displacement; format: binding; conditions: 10 μM fenethylline, average of two replicates
[13] = target: Sigma σ1 (Homo sapiens, UniProt Q99720); assay: Radioligand displacement; format: binding; conditions: read-out: Inhib. (%)
Sigma σ1, sequence (Q99720 whole entry): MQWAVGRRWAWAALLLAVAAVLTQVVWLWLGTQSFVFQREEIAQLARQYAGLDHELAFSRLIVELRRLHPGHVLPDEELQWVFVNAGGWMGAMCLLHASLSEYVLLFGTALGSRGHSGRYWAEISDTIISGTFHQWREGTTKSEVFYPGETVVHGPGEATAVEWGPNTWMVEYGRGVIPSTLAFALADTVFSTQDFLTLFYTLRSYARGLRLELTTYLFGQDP

[14] = system: Phorbol Ester; assay: Radioligand displacement; format: binding; conditions: 10 μM fenethylline, average of two replicates
[15] = target: Prostanoid EP4 (Homo sapiens, UniProt P35408); assay: Radioligand displacement; format: binding; conditions: read-out: Inhib. (%)
Prostanoid EP4, sequence (P35408 whole entry): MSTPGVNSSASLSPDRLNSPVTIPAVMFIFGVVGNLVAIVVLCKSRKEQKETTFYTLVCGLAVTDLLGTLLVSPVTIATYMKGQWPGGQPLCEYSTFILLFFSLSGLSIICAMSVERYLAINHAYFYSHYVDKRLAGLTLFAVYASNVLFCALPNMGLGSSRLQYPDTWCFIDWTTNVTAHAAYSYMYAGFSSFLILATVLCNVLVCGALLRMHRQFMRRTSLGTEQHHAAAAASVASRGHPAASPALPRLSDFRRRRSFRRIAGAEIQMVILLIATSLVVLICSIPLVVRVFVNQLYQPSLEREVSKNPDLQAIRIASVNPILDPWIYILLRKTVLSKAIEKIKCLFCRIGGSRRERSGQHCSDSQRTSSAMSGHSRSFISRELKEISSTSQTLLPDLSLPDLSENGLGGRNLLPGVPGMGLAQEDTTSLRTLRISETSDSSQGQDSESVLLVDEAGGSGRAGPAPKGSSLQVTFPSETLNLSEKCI

[16] = target: Dopamine D2S (Homo sapiens, UniProt P14416); assay: Radioligand displacement; format: binding; conditions: read-out: Inhib. (%)
Dopamine D2S, sequence (P14416 1-414 isoform P14416-2): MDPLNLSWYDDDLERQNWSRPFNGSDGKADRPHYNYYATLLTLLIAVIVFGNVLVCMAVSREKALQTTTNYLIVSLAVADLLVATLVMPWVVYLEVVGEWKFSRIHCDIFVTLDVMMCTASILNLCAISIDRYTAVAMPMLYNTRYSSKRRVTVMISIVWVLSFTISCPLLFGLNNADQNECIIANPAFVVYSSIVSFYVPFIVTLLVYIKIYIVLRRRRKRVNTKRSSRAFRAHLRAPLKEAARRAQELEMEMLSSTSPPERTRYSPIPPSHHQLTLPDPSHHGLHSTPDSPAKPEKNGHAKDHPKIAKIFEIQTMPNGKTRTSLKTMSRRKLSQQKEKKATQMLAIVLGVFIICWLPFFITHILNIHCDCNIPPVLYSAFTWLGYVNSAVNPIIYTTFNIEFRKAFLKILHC

[17] = system: Adrenergic α1A; assay: Radioligand displacement; format: binding; conditions: 10 μM fenethylline, average of two replicates
[18] = target: Cannabinoid CB1 (Homo sapiens, UniProt P21554); assay: Radioligand displacement; format: binding; conditions: read-out: Inhib. (%)
Cannabinoid CB1, sequence (P21554 whole entry): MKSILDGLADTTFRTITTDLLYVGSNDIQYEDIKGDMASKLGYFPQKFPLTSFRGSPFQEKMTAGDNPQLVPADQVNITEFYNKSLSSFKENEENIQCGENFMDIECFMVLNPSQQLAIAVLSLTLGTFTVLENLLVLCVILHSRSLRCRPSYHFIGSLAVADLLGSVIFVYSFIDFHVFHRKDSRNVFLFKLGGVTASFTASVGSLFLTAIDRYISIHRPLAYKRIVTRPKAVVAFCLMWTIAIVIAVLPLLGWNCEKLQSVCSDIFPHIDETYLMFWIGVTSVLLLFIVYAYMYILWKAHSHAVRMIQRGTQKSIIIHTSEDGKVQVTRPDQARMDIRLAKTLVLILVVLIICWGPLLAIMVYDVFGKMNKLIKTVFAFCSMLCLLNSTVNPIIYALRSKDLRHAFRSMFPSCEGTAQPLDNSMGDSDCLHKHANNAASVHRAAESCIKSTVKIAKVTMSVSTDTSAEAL

[19] = target: Adrenergic β2 (Homo sapiens, UniProt P07550); assay: Radioligand displacement; format: binding; conditions: read-out: Inhib. (%)
[20] = system: Swiss Webster mice; assay: Elevated plus maze; format: in vivo; conditions: EPM; fenethylline 20 mg/kg
[21] = system: GABAA – Site 1; assay: Radioligand displacement; format: binding; conditions: 10 μM fenethylline, average of two replicates
[22] = target: Muscarinic M3 (Homo sapiens, UniProt P20309); assay: Radioligand displacement; format: binding; conditions: read-out: Inhib. (%)
Muscarinic M3, sequence (P20309 whole entry): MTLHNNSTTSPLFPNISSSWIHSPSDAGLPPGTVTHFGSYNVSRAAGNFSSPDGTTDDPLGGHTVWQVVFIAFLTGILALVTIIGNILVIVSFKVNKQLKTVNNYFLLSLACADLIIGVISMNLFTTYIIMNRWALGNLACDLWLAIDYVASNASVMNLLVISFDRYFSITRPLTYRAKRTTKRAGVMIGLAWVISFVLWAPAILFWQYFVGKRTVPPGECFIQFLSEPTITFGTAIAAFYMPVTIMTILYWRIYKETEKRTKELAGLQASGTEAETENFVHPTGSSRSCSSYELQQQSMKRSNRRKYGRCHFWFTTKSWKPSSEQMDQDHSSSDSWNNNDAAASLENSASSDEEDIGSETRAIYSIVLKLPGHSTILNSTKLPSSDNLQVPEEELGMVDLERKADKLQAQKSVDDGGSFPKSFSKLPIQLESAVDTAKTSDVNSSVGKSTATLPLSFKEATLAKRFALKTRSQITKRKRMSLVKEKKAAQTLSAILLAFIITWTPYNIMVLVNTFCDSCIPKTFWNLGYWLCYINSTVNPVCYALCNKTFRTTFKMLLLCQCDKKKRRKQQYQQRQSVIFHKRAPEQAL

[23] = system: Swiss Webster mice; assay: Open field hyperlocomotor activity assay; format: in vivo
[24] = system: Adrenergic α1B; assay: Radioligand displacement; format: binding; conditions: 10 μM fenethylline, average of two replicates
[25] = target: AdenosineA2A (Homo sapiens, UniProt P29274); assay: Radioligand displacement; format: binding; conditions: read-out: Inhib. (%)
AdenosineA2A, sequence (P29274 whole entry): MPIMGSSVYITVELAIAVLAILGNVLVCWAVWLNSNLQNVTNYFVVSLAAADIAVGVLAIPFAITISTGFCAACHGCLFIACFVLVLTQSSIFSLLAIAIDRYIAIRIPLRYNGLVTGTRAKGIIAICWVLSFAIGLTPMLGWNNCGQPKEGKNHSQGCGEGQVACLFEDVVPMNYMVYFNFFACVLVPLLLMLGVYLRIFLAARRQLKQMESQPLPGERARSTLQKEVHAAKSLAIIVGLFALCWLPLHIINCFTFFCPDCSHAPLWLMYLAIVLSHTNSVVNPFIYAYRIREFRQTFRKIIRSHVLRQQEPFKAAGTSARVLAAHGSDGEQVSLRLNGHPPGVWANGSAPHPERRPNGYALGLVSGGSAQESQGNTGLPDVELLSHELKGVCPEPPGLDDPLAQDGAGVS

[26] = target: Norepi. Transporter (Homo sapiens, UniProt P23975); assay: Radioligand displacement; format: binding; conditions: read-out: Inhib. (%)
Norepi. Transporter, sequence (P23975 whole entry): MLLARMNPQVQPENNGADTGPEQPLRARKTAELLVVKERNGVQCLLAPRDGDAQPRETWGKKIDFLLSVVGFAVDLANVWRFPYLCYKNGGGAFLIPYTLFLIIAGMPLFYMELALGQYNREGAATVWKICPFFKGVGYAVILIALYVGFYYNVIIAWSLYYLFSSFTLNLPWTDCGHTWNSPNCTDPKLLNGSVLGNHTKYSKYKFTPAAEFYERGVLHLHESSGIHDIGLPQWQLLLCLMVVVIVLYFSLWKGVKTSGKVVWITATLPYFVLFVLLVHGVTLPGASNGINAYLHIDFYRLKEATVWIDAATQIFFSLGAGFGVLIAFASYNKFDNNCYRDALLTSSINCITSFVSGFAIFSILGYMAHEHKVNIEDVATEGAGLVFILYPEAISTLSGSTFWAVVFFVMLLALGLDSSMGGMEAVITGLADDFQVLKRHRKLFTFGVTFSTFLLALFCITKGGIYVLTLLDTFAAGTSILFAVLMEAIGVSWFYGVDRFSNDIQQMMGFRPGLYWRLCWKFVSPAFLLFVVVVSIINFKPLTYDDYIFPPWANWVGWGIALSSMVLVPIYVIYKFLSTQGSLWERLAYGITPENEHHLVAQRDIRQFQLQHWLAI

[27] = target: Muscarinic M2 (Homo sapiens, UniProt P08172); assay: Radioligand displacement; format: binding; conditions: read-out: Inhib. (%)
Muscarinic M2, sequence (P08172 whole entry): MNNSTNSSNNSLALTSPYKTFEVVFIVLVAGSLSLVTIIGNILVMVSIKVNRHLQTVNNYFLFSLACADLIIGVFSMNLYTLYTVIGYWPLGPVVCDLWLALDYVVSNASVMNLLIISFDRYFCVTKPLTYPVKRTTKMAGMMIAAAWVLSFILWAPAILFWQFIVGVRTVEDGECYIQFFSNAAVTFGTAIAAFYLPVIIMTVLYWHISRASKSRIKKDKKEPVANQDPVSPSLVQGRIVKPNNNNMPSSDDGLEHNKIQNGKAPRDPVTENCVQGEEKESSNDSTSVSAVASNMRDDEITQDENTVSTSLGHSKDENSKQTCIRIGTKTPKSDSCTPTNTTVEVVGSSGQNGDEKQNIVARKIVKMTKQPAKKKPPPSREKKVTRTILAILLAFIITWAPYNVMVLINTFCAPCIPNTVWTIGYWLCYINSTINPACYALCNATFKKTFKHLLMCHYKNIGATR

Compound: CC(Cc1ccccc1)NCCn1cnc2c1c(=O)n(C)c(=O)n2C (stereo not shown) [fenethylline, Fenethylline]
- binding across a suite of 31 CNS targets [1]: little binding
- Inhib. (%) [2]: 2%
- inhibition at 10 µM [3]: 9%
- Inhib. (%) [4]: 5%
- inhibition at 10 µM [5]: 0%
- penetration of liberated amphetamine into brain tissue [6]: lags behind that of directly administered amphetamine
- Inhib. (%) [7]: 9%
- Inhib. (%) [8]: 6%
- inhibition at 10 µM [9]: 9%
- induction of conditioned place preference [10]: induce CPP
- inhibition at 10 µM [11]: 16%
- Inhib. (%) [12]: 10%
- inhibition at 10 µM [13]: 7%
- Inhib. (%) [14]: 9%
- inhibition at 10 µM [15]: 3%
- inhibition at 10 µM [16]: 1%
- Inhib. (%) [17]: 27%
- inhibition at 10 µM [18]: 16%
- inhibition at 10 µM [19]: 3%
- time spent in open arms after drug in control animals [20]: reduced the time
- Inhib. (%) [21]: 0%
- inhibition at 10 µM [22]: 2%
- onset of stimulant (hyperlocomotor) activity ([23]; fenethylline 20 mg/kg vs amphetamine 2 mg/kg): more rapid than that of amphetamine alone
- locomotor activity after drug in control animals ([23]; open field, control (KLH) animals): clear dose-dependent increase
- Inhib. (%) [24]: 16%
- inhibition at 10 µM [25]: -5%
- inhibition at 10 µM [26]: 10%
- inhibition at 10 µM [27]: -6%
